The source made the active and inactive calls.
Columns and labels:
[1] = target: T1, Cytochrome P450 3A4 (Homo sapiens, UniProt P08684);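 also: CYP3A4 tested as one member of a cytochrome P450 panel screen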
[2] = target: Cytochrome P450 2C19 (Homo sapiens, UniProt P33261); assay: Cytochrome panel assay with activity outcomes. Panel member name: p450-cyp2c19 Compounds with AC50 equal or less than 10 uM are considered active; format: functional; settings: read-out: AC50
[3] = target: Estrogen receptor beta (Homo sapiens, UniProt Q92731);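 also: recombinant ER-beta bound to coactivator SRC1 peptide in presence of estradiol agonist; inhibitors block coactivator peptide binding and lower the FRET signal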
[4] = target: T2, Carboxy-terminal domain RNA polymerase II polypeptide A small phosphatase 1 (Homo sapiens, UniProt Q9GZU7); assay: CTDSP1 inhibitors, concentration-response, biochemical, absorbance readout, ultra-high-throughput screen actives (AID 540297); format: functional
T2 sequence (Q9GZU7 whole entry): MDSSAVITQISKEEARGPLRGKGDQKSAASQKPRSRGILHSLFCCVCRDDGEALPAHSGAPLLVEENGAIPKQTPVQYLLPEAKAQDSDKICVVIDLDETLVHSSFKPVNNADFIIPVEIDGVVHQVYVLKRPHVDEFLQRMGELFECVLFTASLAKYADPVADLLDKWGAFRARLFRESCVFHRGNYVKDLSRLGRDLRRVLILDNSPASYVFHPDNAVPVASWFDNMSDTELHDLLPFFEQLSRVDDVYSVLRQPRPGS

[5] = target: T3, Voltage-gated N-type calcium channel alpha-1B subunit/Amyloid beta A4 precursor protein-binding family A member 1 (Homo sapiens, UniProt Q00975+Q02410); format: protein assay
[6] = target: T3, Voltage-gated N-type calcium channel alpha-1B subunit/Amyloid beta A4 precursor protein-binding family A member 1; format: protein assay; remark: listed apart in the source
[7] = target: Eukaryotic translation initiation factor 4E (Mus musculus, UniProt P63073); assay: blockers of eIF4G binding by eIF4E – biochemical, TR-FRET, dose response (AID 855); format: functional;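 also: potency for disrupting eIF4E binding to eIF4GI seen as loss of FRET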
[8] = target: T4, High affinity choline transporter 1 (Homo sapiens, UniProt Q9GZV3); assay: human choline transporter blockers, potency – cell-based, 5-point CRC, membrane potential dye, dose response (AID 504840); format: functional
T4 sequence (Q9GZV3 whole entry): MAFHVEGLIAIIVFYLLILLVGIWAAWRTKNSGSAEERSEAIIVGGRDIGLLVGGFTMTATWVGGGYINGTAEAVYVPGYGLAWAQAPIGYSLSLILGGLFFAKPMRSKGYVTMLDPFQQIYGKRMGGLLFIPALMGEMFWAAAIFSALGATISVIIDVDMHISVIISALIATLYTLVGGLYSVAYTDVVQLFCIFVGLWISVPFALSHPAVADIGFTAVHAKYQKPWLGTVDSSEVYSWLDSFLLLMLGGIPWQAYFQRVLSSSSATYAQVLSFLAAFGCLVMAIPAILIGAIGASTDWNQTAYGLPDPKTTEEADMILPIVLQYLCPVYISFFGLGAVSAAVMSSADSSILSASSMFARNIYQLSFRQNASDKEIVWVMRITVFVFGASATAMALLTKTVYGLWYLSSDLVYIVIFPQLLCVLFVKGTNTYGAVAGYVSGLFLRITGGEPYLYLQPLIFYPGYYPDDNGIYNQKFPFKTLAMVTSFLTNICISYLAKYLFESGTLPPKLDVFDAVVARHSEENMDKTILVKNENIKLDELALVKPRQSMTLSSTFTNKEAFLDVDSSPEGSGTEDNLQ

[9] = target: T5, Cytochrome P450 1A2 (Homo sapiens, UniProt P05177);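 also: PubChem cytochrome P450 panel assay, CYP1A2 panel member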
T5 sequence (P05177 whole entry): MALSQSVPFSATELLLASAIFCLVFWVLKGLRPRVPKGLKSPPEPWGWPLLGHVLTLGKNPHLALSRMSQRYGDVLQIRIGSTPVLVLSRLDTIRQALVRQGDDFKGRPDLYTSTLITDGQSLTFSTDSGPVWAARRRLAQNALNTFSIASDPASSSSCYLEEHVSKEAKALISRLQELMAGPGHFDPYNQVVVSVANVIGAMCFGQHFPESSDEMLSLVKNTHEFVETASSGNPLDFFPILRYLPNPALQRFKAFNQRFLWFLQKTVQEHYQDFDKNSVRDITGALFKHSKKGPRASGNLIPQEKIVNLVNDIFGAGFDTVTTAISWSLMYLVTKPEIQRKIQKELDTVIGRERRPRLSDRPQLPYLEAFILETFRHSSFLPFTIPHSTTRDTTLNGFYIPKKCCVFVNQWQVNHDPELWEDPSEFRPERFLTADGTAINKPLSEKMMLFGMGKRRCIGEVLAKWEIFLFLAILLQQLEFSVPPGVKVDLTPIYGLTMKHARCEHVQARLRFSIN

[10] = viability of uninfected HEp-2 cells – cell-based, HTS, cytotoxicity control for RSV inhibitor project, dose response (AID 2410); format: functional; settings: human respiratory syncytial virus
[11] = tested on: Vero; assay: cells; format: functional, cell-based; settings: Chlorocebus sabaeus
[12] = target: Cytochrome P450 2C9 (Homo sapiens, UniProt P11712)
[13] = target: T1, Cytochrome P450 3A4; remark: listed apart in the source
[14] = blockers of bursicon-stimulated LGR2 cAMP reporter – cell-based, HEK293, CRE-luciferase reporter, cherry pick, set 2, dose response (AID 743343); format: functional;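 also: transfected cells were stimulated with diluted bursicon conditioned medium after compound addition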
[15] = blockade of melanocortin 4 receptor signaling – cell-based, plate reader, cherry pick, counter-screen for LGR2 antagonist project, dose response (AID 743444); format: functional;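 also: transfected HEK 293 cells stimulated with alpha-MSH peptide; potency of inhibitors of the alpha-MSH evoked signal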
[16] = A549 cell cytotoxicity, dose response, cytotoxicity control, plate reader, cherry-pick, antagonist series (AID 743412); format: functional, cell-based
[17] = tested on: Vero; assay: cells; format: functional; settings: Chlorocebus sabaeus
[18] = blockers of HIV-1 ZM109 envelope-driven cell-cell fusion – HeLa effector, CEM target cells, luciferase, cherry-pick, dose response (AID 652058); format: functional, cell-based;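 also: luciferase signal from HIV-1 Env mediated cell-cell fusion of effector and target cells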
[19] = blockers of HIV-1 envelope-mediated cell-cell fusion – cherry-pick, dose response (AID 652057); format: functional, cell-based
[20] = HIV-1 AD8 envelope cell-cell fusion blockers – cherry-pick, dose response (AID 652062); format: functional, cell-based;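 also: luciferase signal from cell-cell fusion driven by HIV-1 clade B AD8 Env; potency is for inhibitors of fusion seen as a drop in luminescence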
[21] = OVCAR8 cell viability loss – plate reader, dry powder samples, PAX8 project, dose response (AID 743197); format: functional, cell-based; settings: OVCAR-8
[22] = target: Paired box protein Pax-8 (Homo sapiens, UniProt Q06710); assay: PAX8 transcriptional activity inhibition in RMG-I – RMG-I cells, luciferase, cherry-pick, dose response (AID 687027); format: functional, cell-based;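 also: luciferase reporter driven by Pax8 target thyroperoxidase promoter measured by SteadyGlo luminescence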
Sequence of Paired box protein Pax-8 (Q06710 whole entry): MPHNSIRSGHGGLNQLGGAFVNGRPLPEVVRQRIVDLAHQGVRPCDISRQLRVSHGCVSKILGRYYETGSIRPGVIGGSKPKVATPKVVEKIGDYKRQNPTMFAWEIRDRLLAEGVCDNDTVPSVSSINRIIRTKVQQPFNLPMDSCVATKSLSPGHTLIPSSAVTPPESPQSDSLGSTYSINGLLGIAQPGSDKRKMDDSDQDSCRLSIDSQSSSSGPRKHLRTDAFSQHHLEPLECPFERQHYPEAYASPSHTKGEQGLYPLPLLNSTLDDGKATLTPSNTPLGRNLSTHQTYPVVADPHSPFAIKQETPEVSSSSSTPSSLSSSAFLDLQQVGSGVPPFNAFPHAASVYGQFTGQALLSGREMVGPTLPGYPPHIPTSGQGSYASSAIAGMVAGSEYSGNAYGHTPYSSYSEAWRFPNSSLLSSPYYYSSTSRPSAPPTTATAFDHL

Sequence of Estrogen receptor beta (Q92731 whole entry, the tested form may be a part): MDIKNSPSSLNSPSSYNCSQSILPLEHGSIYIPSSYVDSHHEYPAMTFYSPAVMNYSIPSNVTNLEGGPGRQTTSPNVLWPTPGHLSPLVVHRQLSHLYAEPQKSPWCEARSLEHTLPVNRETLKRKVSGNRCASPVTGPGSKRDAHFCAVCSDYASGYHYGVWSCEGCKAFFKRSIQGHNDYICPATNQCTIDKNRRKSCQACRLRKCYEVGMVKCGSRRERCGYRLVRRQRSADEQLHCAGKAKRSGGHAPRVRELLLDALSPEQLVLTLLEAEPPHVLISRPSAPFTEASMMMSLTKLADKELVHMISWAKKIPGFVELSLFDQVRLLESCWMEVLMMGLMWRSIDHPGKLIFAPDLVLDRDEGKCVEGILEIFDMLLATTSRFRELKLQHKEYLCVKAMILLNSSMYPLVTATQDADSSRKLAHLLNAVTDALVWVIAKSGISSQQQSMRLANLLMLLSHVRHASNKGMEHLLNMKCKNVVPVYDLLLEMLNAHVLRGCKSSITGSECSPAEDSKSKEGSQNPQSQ
T1 sequence (P08684 whole entry): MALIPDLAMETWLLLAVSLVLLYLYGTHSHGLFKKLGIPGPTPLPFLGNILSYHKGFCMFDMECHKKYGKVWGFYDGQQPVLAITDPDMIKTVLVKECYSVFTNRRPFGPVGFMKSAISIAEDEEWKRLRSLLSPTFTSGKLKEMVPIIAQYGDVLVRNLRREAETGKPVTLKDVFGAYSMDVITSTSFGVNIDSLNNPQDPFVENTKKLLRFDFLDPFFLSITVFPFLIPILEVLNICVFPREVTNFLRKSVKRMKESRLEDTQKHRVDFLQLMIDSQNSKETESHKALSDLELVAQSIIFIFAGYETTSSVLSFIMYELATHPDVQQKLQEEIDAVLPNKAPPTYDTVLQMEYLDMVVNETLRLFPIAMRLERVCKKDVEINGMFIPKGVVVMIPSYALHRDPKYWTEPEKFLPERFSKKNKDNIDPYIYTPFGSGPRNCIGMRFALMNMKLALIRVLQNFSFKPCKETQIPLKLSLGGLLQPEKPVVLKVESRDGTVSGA
Sequence of Eukaryotic translation initiation factor 4E (P63073 whole entry): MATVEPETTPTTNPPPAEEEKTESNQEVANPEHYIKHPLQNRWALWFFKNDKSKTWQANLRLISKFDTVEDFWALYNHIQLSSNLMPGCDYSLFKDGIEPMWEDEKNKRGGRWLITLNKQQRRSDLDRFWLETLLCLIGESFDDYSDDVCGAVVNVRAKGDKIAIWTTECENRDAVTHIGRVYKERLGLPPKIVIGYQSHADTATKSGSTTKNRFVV
T3 sequence (Q00975 whole entry): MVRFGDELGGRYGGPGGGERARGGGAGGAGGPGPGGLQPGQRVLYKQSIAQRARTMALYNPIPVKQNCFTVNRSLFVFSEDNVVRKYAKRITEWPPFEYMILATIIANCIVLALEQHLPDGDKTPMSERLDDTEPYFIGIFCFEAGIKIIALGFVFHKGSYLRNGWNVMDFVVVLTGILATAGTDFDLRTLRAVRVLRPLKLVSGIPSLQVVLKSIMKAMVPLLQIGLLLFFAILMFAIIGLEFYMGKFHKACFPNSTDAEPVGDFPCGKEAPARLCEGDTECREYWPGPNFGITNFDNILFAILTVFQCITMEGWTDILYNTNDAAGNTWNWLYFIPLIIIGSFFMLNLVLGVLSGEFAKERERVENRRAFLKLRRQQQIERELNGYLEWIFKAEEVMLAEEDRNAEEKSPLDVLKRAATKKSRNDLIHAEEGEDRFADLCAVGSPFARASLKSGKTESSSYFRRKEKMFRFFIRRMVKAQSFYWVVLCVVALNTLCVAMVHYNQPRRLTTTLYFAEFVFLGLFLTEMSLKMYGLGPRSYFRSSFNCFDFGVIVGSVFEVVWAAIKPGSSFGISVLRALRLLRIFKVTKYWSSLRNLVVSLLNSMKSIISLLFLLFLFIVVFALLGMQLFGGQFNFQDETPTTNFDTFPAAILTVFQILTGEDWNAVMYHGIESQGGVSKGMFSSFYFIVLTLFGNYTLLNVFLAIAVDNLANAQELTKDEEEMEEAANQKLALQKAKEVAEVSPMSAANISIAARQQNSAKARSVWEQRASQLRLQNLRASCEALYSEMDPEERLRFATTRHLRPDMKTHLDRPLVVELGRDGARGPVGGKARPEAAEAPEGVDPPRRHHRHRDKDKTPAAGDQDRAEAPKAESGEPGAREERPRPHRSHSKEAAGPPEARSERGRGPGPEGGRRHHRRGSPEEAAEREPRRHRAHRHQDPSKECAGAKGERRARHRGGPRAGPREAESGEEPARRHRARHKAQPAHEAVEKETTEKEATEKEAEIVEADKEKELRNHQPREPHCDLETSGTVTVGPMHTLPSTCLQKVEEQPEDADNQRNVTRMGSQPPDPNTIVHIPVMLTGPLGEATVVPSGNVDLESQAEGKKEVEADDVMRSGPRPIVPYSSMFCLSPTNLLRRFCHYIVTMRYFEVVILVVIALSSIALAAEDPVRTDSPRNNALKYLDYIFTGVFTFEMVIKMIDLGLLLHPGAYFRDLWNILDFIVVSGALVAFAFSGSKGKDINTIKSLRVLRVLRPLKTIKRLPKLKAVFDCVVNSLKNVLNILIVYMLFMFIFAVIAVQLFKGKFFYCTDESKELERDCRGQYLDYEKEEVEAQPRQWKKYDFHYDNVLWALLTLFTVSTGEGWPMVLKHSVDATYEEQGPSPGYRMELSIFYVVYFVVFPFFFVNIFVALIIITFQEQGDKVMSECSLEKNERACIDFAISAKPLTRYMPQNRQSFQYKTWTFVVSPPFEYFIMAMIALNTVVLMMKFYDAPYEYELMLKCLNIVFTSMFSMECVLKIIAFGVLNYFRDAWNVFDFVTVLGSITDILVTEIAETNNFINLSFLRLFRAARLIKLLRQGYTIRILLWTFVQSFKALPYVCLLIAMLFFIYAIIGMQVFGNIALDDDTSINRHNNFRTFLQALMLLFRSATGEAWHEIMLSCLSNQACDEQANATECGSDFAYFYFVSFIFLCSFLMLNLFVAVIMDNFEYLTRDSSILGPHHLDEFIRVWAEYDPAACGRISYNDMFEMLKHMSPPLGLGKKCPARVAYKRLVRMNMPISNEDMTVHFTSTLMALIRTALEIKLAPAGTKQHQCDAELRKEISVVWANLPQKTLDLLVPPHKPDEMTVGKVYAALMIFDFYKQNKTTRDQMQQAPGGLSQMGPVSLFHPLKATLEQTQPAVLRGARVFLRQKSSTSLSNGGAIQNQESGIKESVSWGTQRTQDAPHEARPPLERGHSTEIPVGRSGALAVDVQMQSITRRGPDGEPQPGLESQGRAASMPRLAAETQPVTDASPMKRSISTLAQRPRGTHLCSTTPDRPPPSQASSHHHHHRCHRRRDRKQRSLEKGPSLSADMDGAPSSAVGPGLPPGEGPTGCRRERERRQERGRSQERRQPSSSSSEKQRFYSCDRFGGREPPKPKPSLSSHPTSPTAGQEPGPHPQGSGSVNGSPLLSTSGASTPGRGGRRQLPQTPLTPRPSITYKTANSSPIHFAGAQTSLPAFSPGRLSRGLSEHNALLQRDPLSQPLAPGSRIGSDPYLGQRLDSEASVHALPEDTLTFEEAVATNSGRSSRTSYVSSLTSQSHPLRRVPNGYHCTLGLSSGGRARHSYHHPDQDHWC
T3 sequence (Q02410 whole entry): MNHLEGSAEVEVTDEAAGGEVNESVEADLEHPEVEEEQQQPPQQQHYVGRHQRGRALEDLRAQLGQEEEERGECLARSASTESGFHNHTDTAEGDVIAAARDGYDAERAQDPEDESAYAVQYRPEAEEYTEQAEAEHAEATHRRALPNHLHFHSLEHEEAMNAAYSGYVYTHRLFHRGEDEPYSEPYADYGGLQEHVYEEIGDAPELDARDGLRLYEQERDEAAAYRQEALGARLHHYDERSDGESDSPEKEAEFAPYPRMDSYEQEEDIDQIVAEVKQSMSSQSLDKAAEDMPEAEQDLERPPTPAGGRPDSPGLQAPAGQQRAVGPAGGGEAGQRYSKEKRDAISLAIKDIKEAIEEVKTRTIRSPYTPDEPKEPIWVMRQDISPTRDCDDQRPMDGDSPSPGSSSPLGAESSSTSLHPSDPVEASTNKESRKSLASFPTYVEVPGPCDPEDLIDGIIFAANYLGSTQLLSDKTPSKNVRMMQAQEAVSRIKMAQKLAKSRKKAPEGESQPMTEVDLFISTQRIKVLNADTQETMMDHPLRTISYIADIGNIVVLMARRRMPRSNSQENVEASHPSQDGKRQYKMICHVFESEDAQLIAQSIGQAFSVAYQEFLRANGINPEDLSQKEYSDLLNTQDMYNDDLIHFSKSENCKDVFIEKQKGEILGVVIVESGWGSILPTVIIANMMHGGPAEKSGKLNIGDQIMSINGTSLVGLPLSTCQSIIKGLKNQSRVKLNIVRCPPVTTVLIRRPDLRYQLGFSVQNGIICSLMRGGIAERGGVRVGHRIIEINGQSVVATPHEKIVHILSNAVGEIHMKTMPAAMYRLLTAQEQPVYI

Compound: Cc1cc2ccccn2c1C(=O)c1ccc(Cl)cc1
- AC50 [1]: inconclusive

Compound: C[C@](O)(c1ccccc1)c1nccc2ccccc12
- AC50 [2]: 3.98 µM (inconclusive)
- AC50 [1]: inconclusive

Compound: CC1CCCC(C)N1C(=O)Nc1cccc(Cl)c1 (stereo unspecified)
- IC50 [3]: > 50 µM (not active)

Compound: CC(=O)c1ccccc1NS(=O)(=O)c1cccc2nsnc12
- IC50 [4]: 4.66 µM (active)

Compound: Cc1cc(C(=O)O)ccc1-c1ccc(/C=C2\SC(=O)N(CC(=O)Nc3ccc4c(c3)OCO4)C2=O)o1
- IC50 [5]: > 50 µM (inactive)
- IC50 [6]: 17.5 µM (active)

Compound: COc1ccc(-c2cn3ccsc3n2)cc1
- IC50 [3]: > 50 µM (not active)

Compound: CC1CCC(C(C)C)C(OC(=O)COC(=O)c2ccc(N)cc2)C1 (stereo unspecified)
- IC50 [7]: > 64 µM (inactive)

Compound: C=CCSc1nc2ccccc2n1Cc1nnc(-c2cccs2)o1
- IC50 [8]: 0.457 µM (active)

Compound: N#Cc1ccc(C2=NC(C(F)(F)F)(C(F)(F)F)c3c(n(Cc4ccco4)c(=O)[nH]c3=O)N2)cc1
- AC50 [1]: inconclusive

Compound: CC(C)n1cnc2c(C(=O)N[C@H]3CN4CCC3CC4)cc(Cl)cc21
- AC50 [9]: 39.8 µM (inconclusive)
- AC50 [1]: inconclusive

Compound: COc1cc2c(cc1NC(=O)c1ccc(C(C)(C)C)cc1)CCCC2
- CC50 [10]: 18.2 µM (active)
- IC50 [11]: 8.78 µM (active)

Compound: O=C(CCNS(=O)(=O)c1cccs1)N1CCCCCC1
- AC50 [12]: 28.2 µM (inconclusive)
- IC50 [7]: > 64 µM (inactive)
- AC50 [13]: 20 µM (inconclusive)

Compound: CC(C)CCn1cnc2c(oc3nc4c(cc32)CCCC4)c1=O
- AC50 [14]: 4.92 µM (active)
- AC50 [15]: 3.8 µM (active)
- AC50 [16]: > 52 µM (inactive)

Compound: COc1ccccc1NC(=O)c1ccc(S(=O)(=O)N(C)C)cc1
- IC50 [7]: > 64 µM (inactive)

Compound: CC(Oc1ccccc1F)C(=O)Nc1ccc2ccccc2c1 (stereo unspecified)
- IC50 [11]: > 6.25 µM (active)

Compound: O=C(CSc1nnc(-c2ccco2)n1Cc1ccco1)NCc1cccs1
- IC50 [8]: 9.55 µM (active)

Compound: Cc1oc(-c2ccc(Cl)cc2)nc1CN1CCC(C(=O)NCc2ccco2)CC1
- IC50 [7]: > 64 µM (inactive)

Compound: O=C(C[n+]1cccc(Br)c1)c1cccs1
- IC50 [8]: 13.2 µM (active)

Compound: CN1CCN(c2ccc3sc(-n4ccc5ccccc54)nc3c2)CC1
- CC50 [17]: > 25 µM (active)
- IC50 [11]: 22.7 µM (active)

Compound: Cc1cccn2c(=O)c3cc(C#N)/c(=N\C(=O)c4ccco4)n(Cc4ccco4)c3nc12
- IC50 [4]: > 80 µM (inactive)

Compound: CO[C@@H]1CN(C)C(=O)c2cc(NS(=O)(=O)c3cn(C)cn3)ccc2OC[C@@H](C)N(Cc2ccc(C(F)(F)F)cc2)C[C@H]1C
- AC50 [18]: 1.91 µM (active)
- AC50 [19]: 2.32 µM (active)
- AC50 [20]: 4.85 µM (active)

Compound: Cc1ccc(S(=O)(=O)N(C)C[C@@H]2OCCCC[C@@H](C)Oc3ccc(NS(=O)(=O)c4ccc(Cl)cc4)cc3C(=O)N([C@H](C)CO)C[C@H]2C)cc1
- AC50 [21]: > 70 µM (inactive)
- AC50 [22]: 4.4 µM (active)

Compound: Cc1ccc(-n2nc(C)c(/C=N/n3c(C)nc4ccccc4c3=O)c2O)cc1
- IC50 [3]: > 50 µM (not active)

Compound: O=C(O)c1cccnc1C(=O)O [QUINOLINIC ACID]
- AC50 [1]: inconclusive
